# In patent US20130210034A1, “COMPLEX PHOSPHOPROTEIN ACTIVATION PROFILES” (BECKMAN COULTER, INC., priority 2005, published 2013):
# What was measured:
# pERK and pS6 = assay: Comparison of SCF-stimulated pERK and pS6 (pERK/pS6 ratios) in healthy donor and AML bone marrow samples; format: cell-based, human
# Description: In an attempt to dissect the differences between the pERK and pS6 kinetic profiles in healthy donor and AML bone marrow sampless, SCF-stimulated pERK and pS6 data derived from AML1, ALM2, and healthy donors 6 to 9 were analyzed from four different perspectives: MFI, the frequency of positive-stained cells, the ratio of positive to negative cells, and fold stimulation (FIG. 10 and Table 10). The ratio of positives to negative cells was calculated by estimating the AUC of both positive- and negative-stained cells at each t=n, and then expressing this as the ratio of positives to negatives. The fold stimulation was the fold change of the positive/negative ratio at t=n over the baseline ratio at t=0 min. […] However, this was not the case in the AML samples.
# lymphocytes = assay: Cytokine response in lymphocytes from bone marrow samples of healthy donors (Example 4); format: cell-based, human; settings: lymphocytes from healthy donor bone marrow (Example 4)
# Description: To assess the signal transduction response after growth factor simulation, 100 to 200 μL of processed samples including about 2×10^6 WBC/100 μL were added to tubes and incubated at 37° C. for 30 minutes. For inhibition experiments, cells were incubated with 100 μM U0126, 1 μg/mL rapamycin, or both for at least 20 minutes prior to cytokine addition and in all cases for 30 min prior to formaldehyde addition. […] After stimulation the cells were immediately fixed by the addition of formaldehyde to a final concentration of 4% v/v and incubated for 10 minutes at room temperature. […]
# First, doublets, aggregates, and debris were excluded by gating on single cell events in the SSC-Area versus SSC-Height histogram. […] Finally, these cells were further analyzed for cytokine-mediated increases in phosphorylation by constructing gates in the single parameter histograms (for positively and negatively stained events, i.e., for the phosphorylated and non-phosphorylated forms, respectively, of each protein) for pS6 (FIGS. 4D and 4G), pERK (FIGS. 4E and 4H), and pSTAT5 (FIGS. 4F and 4I). […] Following this gating scheme, data were analyzed by calculating the area under the curve (AUC), the frequency of positive-stained cells, and the median fluorescence intensity (MFI).
Molecule,"Fold Stimulation, pERK/pS6 (pERK and pS6; AML1)","Frequency, pERK/pS6 (pERK and pS6; AML1)","MFI, pERK/pS6 (pERK and pS6; AML1)","Positives/Negatives, pERK/pS6 (pERK and pS6; AML1)","Fold Stimulation, pERK/pS6 (pERK and pS6; AML2)","Frequency, pERK/pS6 (pERK and pS6; AML2)","MFI, pERK/pS6 (pERK and pS6; AML2)","Positives/Negatives, pERK/pS6 (pERK and pS6; AML2)",[(pERK)max:(pS6)max]MFI ratio (pERK and pS6; AML samples),[(pERK)max:(pS6)max]POS/NEG ratio (pERK and pS6; AML samples),"Fold Stimulation, pERK/pS6 (pERK and pS6; healthy donors 6 to 9)","Frequency, pERK/pS6 (pERK and pS6; healthy donors 6 to 9)","MFI, pERK/pS6 (pERK and pS6; healthy donors 6 to 9)","Positives/Negatives, pERK/pS6 (pERK and pS6; healthy donors 6 to 9)",Phosphorylation response in lymphocytes (lymphocytes)
Stem Cell Factor [SCF],1.4,0.92,0.48,0.29,2.1,0.93,0.54,0.32,about 0.5,about 0.3,5.3,3.1,3.6,11,lack of SCF's effect
"FMS-Like Tyrosine Kinase 3 (FLT-3) ligand (protein, UniProt P49771 27-235, looked up) Fms-related tyrosine kinase 3 …: TQDCSFQHSPISSDFAVKIRELSDYLLQDYPVTVASNLQDEELCGGLWRLVLAQRWMERLKTVAGSKMQGLLERVNTEIHFVTKCAFQPPPSCLRFVQTNISRLLQETSEQLVALKPWITRQNFSRCLELQCQPDSSTLPPPWSPRPLEATAPTAPQPPLLLLLLLPVGLLLLAAAWCLHWQRTRRRTPRPGEQVPPVPSPQDLLLVEH",–,–,–,–,–,–,–,–,–,–,–,–,–,–,no response
